Laboratory results taken from patent US7399607B2, “Fluorescence polarization assays for determining clostridial toxin activity” (priority 2004, dated 2008).

Tested on: BoNT/A
Assay type: biochemical
Details: not given

**Q.** For “GFP-SNAP25(134-206)-His6-C-Alexa Fluor® 594”, which depolarization during proteolysis is on record?
**A.** approximately 20 mP

Tested on: BoNT/A
Details: cited from earlier work

**Q.** With SNKTRIDEAAQRATKML [Peptide N10A] as the substance, how does the “Relative Rate” value read?
**A.** 0.06

**Q.** With SNKTRIDEANARATKML [Peptide Q11A] as the substance, how does the “Relative Rate” value read?
**A.** 0.19

**Q.** For SNKTRIDEANBRATKML [Peptide Q11B], which “Relative Rate” value is on record?
**A.** 0.25

**Q.** For SNKTRIDEANNRATKML [Peptide Q11N], which “Relative Rate” value is on record?
**A.** 0.66

**Q.** For SNKTRIDEANQRABKML [Peptide T14B], which “Relative Rate” value is on record?
**A.** 1.20

**Q.** With SNKTRIDEANQRASKML [Peptide T14S] as the substance, how does the “Relative Rate” value read?
**A.** 0.26

**Q.** With SNKTRIDEANQRATAML [Peptide K15A] as the substance, how does the “Relative Rate” value read?
**A.** 0.12

**Q.** Which “Relative Rate” value does the source give for SNKTRIDEANQRATK [[1-15]] here?
**A.** 0.03

**Q.** For SNKTRIDEANQRATKAL [Peptide M16A], which “Relative Rate” value is on record?
**A.** 0.38

**Q.** With SNKTRIDEANQRATKM [[1-16]] as the substance, how does the “Relative Rate” value read?
**A.** 1.17

**Q.** For SNKTRIDEANQRATKML [[1-17]], which “Relative Rate” value is on record?
**A.** 1.00

**Q.** For SNKTRIDEANQRATKXL [Peptide M16X], which “Relative Rate” value is on record?
**A.** 1.20

**Q.** For SNKTRIDEANQRBTKML [Peptide A13B], which “Relative Rate” value is on record?
**A.** 0.79

**Q.** For SNKTRIDEBNQRATKML [Peptide A9B], which “Relative Rate” value is on record?
**A.** 0.38

**Q.** With SNKTRIDQANQRATKML [Peptide E8Q] as the substance, how does the “Relative Rate” value read?
**A.** 2.08

**Q.** With SNKTRINEANQRATKML [Peptide D7N] as the substance, how does the “Relative Rate” value read?
**A.** 0.23
